Results published in PubChem BioAssay (NCI).
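At the GI50, growth is halved. TGI: total growth inhibition.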

What was measured:
Assay in all cases: NCI-60 cell line screen, 384-well format
786-0 renal = test system: 786-0 renal
A498 renal = test system: A498 renal
A549 NSCLC = test system: A549 NSCLC
ACHN renal = test system: ACHN renal
BT-549 breast = test system: BT-549 breast
CAKI-1 renal = test system: CAKI-1 renal
CCRF-CEM leukemia = test system: CCRF-CEM leukemia
COLO 205 colon = test system: COLO 205 colon
DU-145 prostate = test system: DU-145 prostate
EKVX NSCLC = test system: EKVX NSCLC
HCC-2998 colon = test system: HCC-2998 colon
HCT-116 colon = test system: HCT-116 colon
HCT-15 colon = test system: HCT-15 colon
HL-60(TB) leukemia = test system: HL-60(TB) leukemia
HOP-62 NSCLC = test system: HOP-62 NSCLC
HOP-92 NSCLC = test system: HOP-92 NSCLC
HS 578T breast = test system: HS 578T breast
HT29 colon = test system: HT29 colon
IGROV1 ovarian = test system: IGROV1 ovarian
K-562 leukemia = test system: K-562 leukemia
KM12 colon = test system: KM12 colon
LOX IMVI melanoma = test system: LOX IMVI melanoma
M14 melanoma = test system: M14 melanoma
MALME-3M melanoma = test system: MALME-3M melanoma
MCF7 breast = test system: MCF7 breast
MDA-MB-231 breast = test system: MDA-MB-231 breast
MDA-MB-435 melanoma = test system: MDA-MB-435 melanoma
MDA-MB-468 breast = test system: MDA-MB-468 breast
MOLT-4 leukemia = test system: MOLT-4 leukemia

COc1cc2ncnc(Nc3cccc(Cl)c3F)c2cc1OC(=O)N1CCN(C)C[C@H]1C
GI50 ([…]-0 renal): 14.4 µM
TGI (786-0 renal): 29 µM
GI50 (A498 renal): 17 µM
TGI (A498 renal): 42.5 µM
GI50 (A549 NSCLC): 12.3 µM
TGI (A549 NSCLC): 43.1 µM
GI50 (ACHN renal): 0.427 µM
TGI (ACHN renal): 20.7 µM
GI50 (BT-549 breast): 20.3 µM
TGI (BT-549 breast): 46.5 µM
GI50 (CAKI-1 renal): 2.3 µM
TGI (CAKI-1 renal): 20.4 µM
GI50 (CCRF-CEM leukemia): 20.1 µM
TGI (CCRF-CEM leukemia): 49.2 µM
GI50 (COLO 205 colon): 22.4 µM
TGI (COLO 205 colon): 54 µM
GI50 (DU-145 prostate): 13.5 µM
TGI (DU-145 prostate): 58.2 µM
GI50 (EKVX NSCLC): 0.304 µM
TGI (EKVX NSCLC): 16.7 µM
GI50 (HCC-2998 colon): 17.3 µM
TGI (HCC-2998 colon): 32.4 µM
GI50 (HCT-116 colon): 16.9 µM
TGI (HCT-116 colon): 32.8 µM
GI50 (HCT-15 colon): 13.9 µM
TGI (HCT-15 colon): 29.2 µM
GI50 (HL-60(TB) leukemia): 16.5 µM
TGI (HL-60(TB) leukemia): 30.2 µM
GI50 (HOP-62 NSCLC): 17.6 µM
TGI (HOP-62 NSCLC): 42 µM
GI50 (HOP-92 NSCLC): 13.4 µM
TGI (HOP-92 NSCLC): 28.5 µM
GI50 (HS 578T breast): 15.2 µM
TGI (HS 578T breast): 29.6 µM
GI50 (HT29 colon): 14.4 µM
TGI (HT29 colon): 31.2 µM
GI50 (IGROV1 ovarian): 0.241 µM
TGI (IGROV1 ovarian): 11.9 µM
GI50 (K-562 leukemia): 5.49 µM
TGI (K-562 leukemia): 17.8 µM
GI50 (KM12 colon): 20.1 µM
TGI (KM12 colon): 41.4 µM
GI50 (LOX IMVI melanoma): 16.3 µM
TGI (LOX IMVI melanoma): 30.5 µM
GI50 (M14 melanoma): 16.4 µM
TGI (M14 melanoma): 30.7 µM
GI50 (MALME-3M melanoma): 15.1 µM
TGI (MALME-3M melanoma): 28.8 µM
GI50 (MCF7 breast): 19.8 µM
TGI (MCF7 breast): 87.4 µM
GI50 (MDA-MB-231 breast): 14.7 µM
TGI (MDA-MB-231 breast): 38.4 µM
GI50 (MDA-MB-435 melanoma): 22.6 µM
TGI (MDA-MB-435 melanoma): 55.8 µM
GI50 (MDA-MB-468 breast): 0.128 µM
TGI (MDA-MB-468 breast): 0.446 µM
GI50 (MOLT-4 leukemia): 14.2 µM
TGI (MOLT-4 leukemia): 28.1 µM
